Results taken from patent US10782295B2, “Cysteine-reactive ligand discovery in proteomes” (THE SCRIPPS RESEARCH INSTITUTE, priority 2013, dated 2020).

Assays:
C22A-ZAK = molecular target: T1, C22A-ZAK (Homo sapiens, UniProt Q9NYL2, C22A); assay: in-gel fluorescence labeling by HNEyne probe; type: binding; settings: in vitro (10 μM) and in living cells (5 μM), 1 hour
T1 construct: Full-length cDNA encoding human ZAK-13 (BC001401); expressed in transfected cells
Method: (§1) The gel signals for IA-labeling of WT-ZAK were blocked by pretreatment with HNE over a concentration range that closely matched the HNE-sensitivity profile observed for C22 in competitive isoTOP-ABPP experiments (FIG. 4b, compare to FIG. 3a). […] Considering further that C22 is predicted to reside adjacent to the ATP-binding loop of ZAK, we postulated that the HNE-induced loss of kinase activity might be due to blockade of ATP-binding.
(§2) 50 μL of soluble lysate (1 mg/mL in PBS) of […] cells transfected with mock ZAKWT and ZAK-C22A was labeled with 10 μM of HNEyne4 (Cayman Chemicals, 1 μL of 500 μM stock in ethanol) for 1 hour at room temperature. Cycloaddition was performed with 200 μM rhodamine-azide, 1 mM TCEP, 100 μM TBTA ligand and 1 mM CuSO4. The reaction was allowed to proceed at room temperature for 1 hour before quenching with 20 μL of 4×SDS-PAGE loading buffer (reducing). Quenched reactions were separated by SDS-PAGE (40 μL of sample/lane) and visualized in-gel using a fluorescence scanner. For the in situ HNEyne labeling, WT- and C22A-ZAK transfected cells were grown in a 6-well plate to 100% confluency and switched into 1 mL of serum-free DMEM medium. […] 50 μL of soluble lysates were subjected to the cycloaddition protocol as described above and probe labeling was monitored by in-gel fluorescence.

WT-ZAK = molecular target: T2, WT-ZAK (Homo sapiens, UniProt Q9NYL2); assay: in-gel fluorescence labeling by HNEyne probe; type: binding; settings: in vitro (10 μM) and in living cells (5 μM), 1 hour
T2 construct: Full-length cDNA encoding human ZAK-13 (BC001401); expressed in transfected cells
Method: as §1, §2

T2 sequence (Q9NYL2 1-455 isoform Q9NYL2-2): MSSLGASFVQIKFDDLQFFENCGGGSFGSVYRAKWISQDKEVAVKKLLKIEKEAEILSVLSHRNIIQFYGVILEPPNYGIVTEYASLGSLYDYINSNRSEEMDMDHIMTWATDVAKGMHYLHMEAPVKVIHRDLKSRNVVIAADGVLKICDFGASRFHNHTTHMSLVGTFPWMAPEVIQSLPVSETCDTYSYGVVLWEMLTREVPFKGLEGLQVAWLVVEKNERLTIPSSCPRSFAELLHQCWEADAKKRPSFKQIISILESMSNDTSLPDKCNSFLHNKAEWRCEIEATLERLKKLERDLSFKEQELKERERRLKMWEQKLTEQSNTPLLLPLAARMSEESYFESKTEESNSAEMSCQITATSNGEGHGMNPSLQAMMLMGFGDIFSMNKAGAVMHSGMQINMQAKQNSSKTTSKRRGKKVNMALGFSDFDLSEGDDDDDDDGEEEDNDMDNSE
T1 sequence (Q9NYL2 1-455 isoform Q9NYL2-2 C22A): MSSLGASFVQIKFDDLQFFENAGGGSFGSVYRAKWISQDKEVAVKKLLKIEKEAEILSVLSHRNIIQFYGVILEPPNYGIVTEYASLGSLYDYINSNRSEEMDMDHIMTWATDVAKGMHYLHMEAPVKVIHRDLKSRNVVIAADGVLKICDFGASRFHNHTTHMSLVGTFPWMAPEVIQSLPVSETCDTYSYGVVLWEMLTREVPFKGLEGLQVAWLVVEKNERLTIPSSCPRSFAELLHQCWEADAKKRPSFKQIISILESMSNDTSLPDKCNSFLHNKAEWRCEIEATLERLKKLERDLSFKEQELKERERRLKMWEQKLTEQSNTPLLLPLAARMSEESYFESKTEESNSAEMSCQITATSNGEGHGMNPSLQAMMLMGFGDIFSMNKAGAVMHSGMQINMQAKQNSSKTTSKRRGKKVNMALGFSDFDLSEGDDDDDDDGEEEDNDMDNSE

C#CCCCC(O)C=CC=O (centres unmarked) [HNEyne]
probe labeling of C22A-ZAK mutant (C22A-ZAK): but not the C22A-ZAK mutant | probe labeling of WT-ZAK (WT-ZAK): direct labeling
